According to patent US6421455B1, “Method for detecting cancer on skin of humans and mammals and arrangement for performing the method” (Medeikonos AB, priority 1996, dated 2002):

Tests used:
[1] = test system: skin cancer (tumours) on skin; assay: Imaging fluorescence spectroscopy of skin after topical ALA application; type: in vivo, human; details: exciting light about 0,5 mW/cm^2, exposing time 2 s
Procedure: (§1) The method according to the invention is carried out in the way that first a water-in-oil emulsion or an oil-in-water emulsion is prepared form a compound called delta amino levulinic acid (ALA) having an ALA concentration of 5-25%. […] This agent which has the formula I is normally produced in the body in the […] and is a building stone for the haemoglobin. [drawing 1]

[2] = Solubility of ALA in water; type: physicochemical; details: ALA in the form of powder
Procedure: as §1

solubility in water [2]: easily solved in water
Compound: NCC(=O)CCC(=O)O [ALA, delta amino levulinic acid]
average fluorescence level within area B (ALA-treated skin without detected tumours) relative to area A (untreated skin, skin auto fluorescence) ([1]; FIG. 1, back of a person): 1,9 × | fluorescence intensity of white-contoured areas (tumours, areas 1-4) relative to skin auto fluorescence ([1]; FIG. 1, back of a person): 2,75 × | average fluorescence level in area B (ALA-treated skin without detected tumours) relative to area A (untreated skin, skin auto fluorescence) ([1]; FIG. 2, breast of a person): 2,0 × | fluorescence intensity of white-contoured areas (tumour, area 7) relative to skin auto fluorescence ([1]; FIG. 2, breast of a person): > 2,75 ×
